Source: DBAASP
In brackets after ≈: the same amount, converted by molar mass. Several values for one entry are separate records, joined by “and”; a condition that tells them apart may be missing. Equal values may be shown once. Values belong to the compound of their own block, whether it stands above or below them.

How the values were obtained:
Experiment in all cases: ≥ marks a high value that may be exact or a test limit, other limits are often not marked, values filed in µg/mL are converted to µM
[1] = system: Micrococcus luteus ATCC 9341
[2] = system: Staphylococcus aureus ATCC 6538
[3] = system: Candida albicans ATCC 36232
[4] = system: Staphylococcus aureus AB208193
[5] = system: Escherichia coli ATCC 25922
[6] = system: Staphylococcus aureus AB94004
[7] = system: Bacillus thuringiensis AB92037
[8] = system: Staphylococcus aureus P1389
[9] = system: Staphylococcus aureus P1374
[10] = system: Staphylococcus epidermidis AB208188
[11] = system: Micrococcus luteus AB93113
Escherichia coli AB94012 = system: Escherichia coli AB94012
[12] = system: Staphylococcus epidermidis AB208187
[13] = system: Bacillus subtilis AB91021
[14] = system: Pseudomonas aeruginosa ATCC 9027
[15] = system: Staphylococcus aureus P1381
[16] = system: Staphylococcus aureus ATCC 25923
Aspergillus fumigatus = system: Aspergillus fumigatus
[17] = system: Fusarium culmorum MUCL 30162
[18] = system: Trichophyton mentagrophytes
[19] = system: Fusarium haematococcum 160.2.2
[20] = system: Alternaria brassicicola MUCL 20297
[21] = system: Neurospora crassa CBS 327-54
[22] = system: Fusarium oxysporum MUCL 909
[23] = system: Candida albicans ATCC 3623
[24] = system: Escherichia coli ATCC 2592
Micrococcus luteus = system: Micrococcus luteus
Aerococcus viridans = system: Aerococcus viridans
Enterococcus faecalis = system: Enterococcus faecalis
Escherichia coli K-12 = system: Escherichia coli K-12
Klebsiella pneumoniae = system: Klebsiella pneumoniae
[25] = system: Enterobacter cloacae beta-12
[26] = system: Xanthomonas campestris pv. oryzae
Serratia marcescens Db11 = system: Serratia marcescens Db11
Escherichia coli D22 = system: Escherichia coli D22
[27] = system: Staphylococcus aureus USA 300
Bacillus subtilis QB935 = system: Bacillus subtilis QB935
[28] = system: Pseudomonas aeruginosa ATCC 82118
Staphylococcus aureus = system: Staphylococcus aureus
Escherichia coli D31 = system: Escherichia coli D31
Salmonella typhimurium = system: Salmonella typhimurium
Bacillus thuringiensis = system: Bacillus thuringiensis
Escherichia coli 1106 = system: Escherichia coli 1106
Bacillus megaterium = system: Bacillus megaterium
Alcaligenes faecalis = system: Alcaligenes faecalis
[29] = system: Pectobacterium carotovorum subsp. carotovorum
Burkholderia cepacia = system: Burkholderia cepacia

Structure (SMILES): CC(C)[C@H](NC(=O)[C@H](CCCCN)NC(=O)[C@H](Cc1ccccc1)NC(=O)[C@@H](NC(=O)[C@@H](NC(=O)[C@H](CCCCN)NC(=O)[C@H](CCCCN)NC(=O)[C@@H](N)CCCCN)C(C)C)C(C)C)C(=O)N[C@@H](CCCCN)C(=O)N[C@@H](Cc1ccccc1)C(=O)N[C@@H](CCCCN)C(N)=O [KKKVVFKVKFK]
MIC [1]: 2.27 µM (≈ 3.13 µg/mL) | MIC [2]: 2.27 µM (≈ 3.13 µg/mL) | MIC [3]: 9.07 µM and 3.21 µM and 4.53 µM

Structure (SMILES): CC[C@H](C)[C@H](NC(=O)[C@H](CCCCN)NC(=O)[C@@H](NC(=O)[C@H](C)NC(=O)[C@H](CC(C)C)NC(=O)[C@H](CCCCN)NC(=O)[C@H](Cc1ccccc1)NC(=O)[C@H](CC(C)C)NC(=O)[C@H](Cc1cnc[nH]1)NC(=O)CNC(=O)[C@H](Cc1ccccc1)NC(=O)[C@@H](N)Cc1ccccc1)[C@@H](C)O)C(=O)N[C@H](C(=O)N1CCC[C@H]1C(=O)N[C@@H](CO)C(=O)N[C@@H](CC(C)C)C(=O)N[C@@H](Cc1ccccc1)C(=O)N[C@@H](CCC(N)=O)C(=O)O)[C@@H](C)CC [FFGHLFKLATKIIPSLFQ]
MIC [2]: 1.5 µM (≈ 3.16 µg/mL) | MIC [4]: 3 µM (≈ 6.32 µg/mL) | MIC [5]: 11.9 µM (≈ 25.1 µg/mL) | MIC [6]: 1.5 µM (≈ 3.16 µg/mL) | MIC [7]: 3 µM (≈ 6.32 µg/mL) | MIC [8]: 3 µM (≈ 6.32 µg/mL) | MIC [9]: 3 µM (≈ 6.32 µg/mL) | MIC [10]: 1.5 µM (≈ 3.16 µg/mL) | MIC [11]: ≥ 47.5 µM | MIC (Escherichia coli AB94012): 23.7 µM (≈ 49.9 µg/mL) | MIC [12]: 3 µM (≈ 6.32 µg/mL) | MIC [13]: 3 µM (≈ 6.32 µg/mL) | MIC [14]: 11.9 µM (≈ 25.1 µg/mL) | MIC [15]: 1.5 µM (≈ 3.16 µg/mL) | MIC [16]: 3 µM (≈ 6.32 µg/mL)

Now from value to compound:

MIC (Aspergillus fumigatus): 30 µM (≈ 83.1 µg/mL) | MIC [17]: 10 µM (≈ 27.7 µg/mL) | MIC [18]: 30 µM (≈ 83.1 µg/mL) | MIC [19]: 7 µM (≈ 19.4 µg/mL) | MIC [20]: 10 µM (≈ 27.7 µg/mL) | MIC [21]: 5 µM (≈ 13.9 µg/mL) | MIC [22]: 30 µM (≈ 83.1 µg/mL)
Structure (SMILES): CC[C@H](C)[C@H](NC(=O)[C@H](CO)NC(=O)[C@H](CC(C)C)NC(=O)[C@@H](NC(=O)[C@@H](N)CCCN=C(N)N)[C@@H](C)CC)C(=O)N[C@@H](CC(C)C)C(=O)N[C@@H](CCCN=C(N)N)C(=O)N[C@@H](Cc1cnc[nH]1)C(=O)N[C@@H](CCC(N)=O)C(=O)N[C@@H](CC(N)=O)C(=O)N[C@@H](CC(C)C)C(=O)N[C@@H](CC(C)C)C(=O)N[C@@H](CCCCN)C(=O)N[C@@H](CCC(=O)O)C(=O)N[C@@H](CC(C)C)C(=O)N[C@@H](CCC(N)=O)C(=O)N[C@@H](CC(=O)O)C(=O)N[C@@H](CC(C)C)C(=O)N[C@@H](C)C(=O)N[C@@H](CC(C)C)C(=O)N[C@@H](CCC(N)=O)C(=O)NCC(=O)N[C@@H](C)C(=O)N[C@@H](CCCCN)C(=O)O [RILSILRHQNLLKELQDLALQGAK]

MIC [1]: 4.39 µM (≈ 6.3 µg/mL) | MIC [2]: 11.6 µM (≈ 16.7 µg/mL) | MIC [23]: 4.39 µM (≈ 6.3 µg/mL) | MIC [24]: 11.6 µM (≈ 16.7 µg/mL) | MIC [14]: 8.7 µM (≈ 12.5 µg/mL)
Structure (SMILES): CC(C)C[C@H](NC(=O)[C@H](CC(C)C)NC(=O)[C@H](CCCCN)NC(=O)[C@H](CC(C)C)NC(=O)[C@H](CC(C)C)NC(=O)[C@H](CC(C)C)NC(=O)[C@H](CCCCN)NC(=O)[C@H](CC(C)C)NC(=O)[C@H](CC(C)C)NC(=O)[C@H](CC(C)C)NC(=O)[C@@H](N)CCCCN)C(=O)N[C@@H](CCCCN)C(N)=O [KLLLKLLLKLLK]

MIC (Micrococcus luteus): ≥ 200 µM | MIC (Aerococcus viridans): ≥ 200 µM | MIC (Enterococcus faecalis): ≥ 200 µM | MIC (Escherichia coli K-12): ≥ 100 µM | MIC (Klebsiella pneumoniae): > 200 µM | MIC [25]: ≥ 141 µM | MIC [26]: ≥ 141 µM | MIC (Serratia marcescens Db11): ≥ 200 µM | MIC (Escherichia coli D22): ≥ 70.7 µM | MIC [27]: ≥ 100 µM | MIC (Bacillus subtilis QB935): ≥ 200 µM | MIC [28]: ≥ 200 µM | MIC (Staphylococcus aureus): > 200 µM | MIC (Escherichia coli D31): ≥ 141 µM | MIC (Salmonella typhimurium): ≥ 70.7 µM | MIC (Bacillus thuringiensis): ≥ 200 µM | MIC (Escherichia coli 1106): ≥ 141 µM | MIC (Bacillus megaterium): ≥ 200 µM | MIC (Alcaligenes faecalis): ≥ 70.7 µM | MIC [29]: ≥ 200 µM | MIC (Burkholderia cepacia): ≥ 100 µM
Structure (SMILES): CSCC[C@H](NC(=O)[C@H](CC(N)=O)NC(=O)[C@@H]1CCCN1C(=O)[C@@H]1CCCN1C(=O)[C@H](CCCNC(=N)N)NC(=O)[C@@H]1CCCN1C(=O)[C@H](CCCNC(=N)N)NC(=O)[C@@H]1CCCN1C(=O)[C@H](CCCNC(=N)N)NC(=O)[C@H](Cc1ccc(O)cc1)NC(=O)[C@H](CC(=O)O)NC(=O)[C@@H]1CCCN1C(=O)[C@H](CCCCN)NC(=O)[C@H](CC(=O)O)NC(=O)[C@@H](N)C(C)C)C(=O)O [VDKPDYRPRPRPPNM]
